From PMC9299836 (eLife, 2022)
“And” between values parts separate entries of the source, which are not always exact repeats. Identical values can stand only once.

Legend:
mGluR2 [1] = biological target: mGluR2 (Mus musculus, UniProt Q14BI2, A548F); assay: Live-cell FRET, azi-CRD (cysteine-rich domain) sensor in HEK293T cells; details: for Mean normalized FRET response, azi-CRD PAM DRC: glutamate + 10μM BINA, maximal response normalized to 1mM glutamate
mGluR2 [2] = biological target: T1, mGluR2 (Mus musculus, UniProt Q14BI2); assay: Live-cell FRET, SNAP-m2 (VFT domain) inter-subunit sensor in HEK293T cells; details: for SNAP-m2 FRET response (PAM DRC): individual cells, normalized to 1mM glutamate;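 on all read-outs here: apparent FRET efficiency from whole-membrane ROIs of single cells, corrected for donor bleed-through and background, ΔFRET as treatment minus pretreatment signal, recorded at room temperature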
mGluR2 [3] = biological target: mGluR2 (Mus musculus, UniProt Q14BI2, INS715F); assay: Live-cell FRET, azi-ECL2 (7TM domain, extracellular loop 2) sensor in HEK293T cells; details: for Mean normalized azi-ECL2 FRET response: glutamate + 10μM modulator, maximal response normalized to 1mM glutamate;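 on all read-outs here: Cy3/Cy5 click-labeled sensor, whole-membrane ROIs per cell, apparent FRET after bleed-through correction, ΔFRET as treatment minus pre-treatment signal, at room temperature, at least three biological replicates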
mGluR2 [4] = biological target: T1, mGluR2; assay: Functional calcium imaging, SNAP-mGluR2 (no FLAG-tag) with chimeric G protein Gqo5 in HEK293T cells; type: cell-based; set-up: Full length mGluR2 construct with an amber codon (TAG) mutation of amino acid A548 (azi-CRD) or N-terminal SNAP-tag (SNAP-mGluR2); host or cells: HEK293T; details: for Intracellular Ca2+ Response (normalized to 1mM glutamate), Mean: Glutamate + 1μM BINA
[5] = 10μM BINA, ([1 mM glutamate + modulator] - [1 mM glutamate]) × 100
[6] = Glutamate + 10μM BINA, log[Glutamate] (M) -5.82391
[7] = Glutamate + 10μM BINA, log[Glutamate] (M) -6.52288
[8] = Glutamate + 10μM BINA, log[Glutamate] (M) -7
[9] = Glutamate + 10μM BINA, log[Glutamate] (M) -7.30103
[10] = Glutamate + 10μM BINA, log[Glutamate] (M) -7.69897

T1 sequence (Q14BI2 19-872): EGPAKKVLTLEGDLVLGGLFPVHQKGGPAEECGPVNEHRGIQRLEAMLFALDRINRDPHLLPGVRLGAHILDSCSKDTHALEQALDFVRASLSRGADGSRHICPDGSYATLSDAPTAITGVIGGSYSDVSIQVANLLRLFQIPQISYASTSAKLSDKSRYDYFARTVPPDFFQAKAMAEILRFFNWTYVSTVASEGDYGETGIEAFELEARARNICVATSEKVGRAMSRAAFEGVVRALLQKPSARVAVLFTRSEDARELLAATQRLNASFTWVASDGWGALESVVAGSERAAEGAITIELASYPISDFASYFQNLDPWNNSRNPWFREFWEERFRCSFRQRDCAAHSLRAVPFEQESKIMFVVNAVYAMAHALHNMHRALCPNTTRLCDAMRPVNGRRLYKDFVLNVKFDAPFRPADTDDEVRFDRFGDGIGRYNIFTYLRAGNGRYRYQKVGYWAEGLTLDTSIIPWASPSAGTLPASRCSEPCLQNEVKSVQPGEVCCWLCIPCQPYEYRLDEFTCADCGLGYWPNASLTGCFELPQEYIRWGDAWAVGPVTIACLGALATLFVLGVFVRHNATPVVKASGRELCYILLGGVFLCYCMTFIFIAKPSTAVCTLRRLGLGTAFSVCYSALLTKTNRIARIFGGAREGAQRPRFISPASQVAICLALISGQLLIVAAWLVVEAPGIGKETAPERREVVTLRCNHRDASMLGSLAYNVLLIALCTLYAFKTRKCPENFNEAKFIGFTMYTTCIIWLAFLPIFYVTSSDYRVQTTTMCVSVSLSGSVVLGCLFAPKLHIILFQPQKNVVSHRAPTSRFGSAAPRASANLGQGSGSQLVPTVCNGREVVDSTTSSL
Sequence of mGluR2 (Mus musculus, UniProt Q14BI2, INS715F) (Q14BI2 with tags, fused parts or gaps INS715F): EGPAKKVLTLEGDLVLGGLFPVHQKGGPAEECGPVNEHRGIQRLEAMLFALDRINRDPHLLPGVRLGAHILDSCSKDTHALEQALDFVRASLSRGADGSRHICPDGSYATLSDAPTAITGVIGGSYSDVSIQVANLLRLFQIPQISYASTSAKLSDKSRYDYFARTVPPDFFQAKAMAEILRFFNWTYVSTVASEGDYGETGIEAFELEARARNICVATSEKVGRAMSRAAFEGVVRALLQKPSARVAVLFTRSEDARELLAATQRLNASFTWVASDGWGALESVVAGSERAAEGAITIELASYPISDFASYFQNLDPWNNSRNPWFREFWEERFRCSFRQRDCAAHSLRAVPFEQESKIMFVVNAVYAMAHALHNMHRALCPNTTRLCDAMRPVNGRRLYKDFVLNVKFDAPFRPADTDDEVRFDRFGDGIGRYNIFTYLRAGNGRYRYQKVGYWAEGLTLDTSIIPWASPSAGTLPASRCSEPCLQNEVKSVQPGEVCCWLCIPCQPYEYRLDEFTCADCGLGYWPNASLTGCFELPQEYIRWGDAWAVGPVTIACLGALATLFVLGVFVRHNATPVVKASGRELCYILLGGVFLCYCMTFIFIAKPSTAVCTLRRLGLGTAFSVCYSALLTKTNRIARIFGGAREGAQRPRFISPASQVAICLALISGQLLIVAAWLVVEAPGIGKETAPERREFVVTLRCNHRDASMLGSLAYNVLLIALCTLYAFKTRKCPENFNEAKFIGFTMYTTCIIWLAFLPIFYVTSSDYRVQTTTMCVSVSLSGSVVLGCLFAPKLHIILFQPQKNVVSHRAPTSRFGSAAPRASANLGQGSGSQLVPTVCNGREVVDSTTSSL
Sequence of mGluR2 (Mus musculus, UniProt Q14BI2, A548F) (Q14BI2 19-872 A548F): as the sequence (Q14BI2 19-872) above, with A530F counted along it

- azi-CRD - ΔEfficacy, Mean ΔEfficacy (mGluR2 [1]; [5]): 12.0943
- Hill slope of glutamate titration (mGluR2 [1]; azi-CRD sensor, + 10 μM modulator): 1.16
- Mean max response (normalized max ΔFRET) (mGluR2 [1]; azi-CRD, 1 mM glutamate + 10 μM modulator, normalized to 1 mM glutamate): 1.12
- Mean ΔPotency (mGluR2 [1]; azi-CRD, 10μM modulator, (([modulator + glutamate]EC50 – [glutamate] EC50)/[glutamate] EC50) × 100): -86.2846
- Mean normalized FRET response, azi-CRD PAM DRC (mGluR2 [1]; log[Glutamate] (M) -3): 1.121
- Mean normalized FRET response, azi-CRD PAM DRC (mGluR2 [1]; log[Glutamate] (M) -4.1549): 1.112
- Mean normalized FRET response, azi-CRD PAM DRC (mGluR2 [1]; log[Glutamate] (M) -4.52288): 1.067
- Mean normalized FRET response, azi-CRD PAM DRC (mGluR2 [1]; log[Glutamate] (M) -5): 1.001
- Mean normalized FRET response, azi-CRD PAM DRC (mGluR2 [1]; log[Glutamate] (M) -5.39794): 0.8946
- Mean normalized FRET response, azi-CRD PAM DRC (mGluR2 [1]; log[Glutamate] (M) -5.82391): 0.6333
- Mean normalized FRET response, azi-CRD PAM DRC (mGluR2 [1]; log[Glutamate] (M) -6.52288): 0.1759
- Mean normalized FRET response, azi-CRD PAM DRC (mGluR2 [1]; log[Glutamate] (M) -7): 0.038
- Mean normalized FRET response, azi-CRD PAM DRC (mGluR2 [1]; log[Glutamate] (M) -7.30103): 0
- Mean normalized FRET response, azi-CRD PAM DRC (mGluR2 [1]; log[Glutamate] (M) -7.69897): 0
- Mean normalized FRET response, azi-CRD PAM DRC (mGluR2 [1]; log[Glutamate] (M) -8): 0
- SNAP-m2 - ΔEfficacy, Mean ΔEfficacy (mGluR2 [2]; [5]): 2.381
- SNAP-m2 FRET response (PAM DRC), Mean (mGluR2 [2]; Glutamate + 10μM BINA, log[Glutamate] (M) -3): -1.024
- SNAP-m2 FRET response (PAM DRC), Mean (mGluR2 [2]; Glutamate + 10μM BINA, log[Glutamate] (M) -4.1549): -1.044
- SNAP-m2 FRET response (PAM DRC), Mean (mGluR2 [2]; Glutamate + 10μM BINA, log[Glutamate] (M) -4.52288): -1.065
- SNAP-m2 FRET response (PAM DRC), Mean (mGluR2 [2]; Glutamate + 10μM BINA, log[Glutamate] (M) -5): -1.035
- SNAP-m2 FRET response (PAM DRC), Mean (mGluR2 [2]; Glutamate + 10μM BINA, log[Glutamate] (M) -5.39794): -0.9191
- SNAP-m2 FRET response (PAM DRC), Mean (mGluR2 [2]; [6]): -0.7275
- SNAP-m2 FRET response (PAM DRC), Mean (mGluR2 [2]; [7]): -0.3184
- SNAP-m2 FRET response (PAM DRC), Mean (mGluR2 [2]; [8]): -0.07748
- SNAP-m2 FRET response (PAM DRC), Mean (mGluR2 [2]; [9]): -0.01427
- SNAP-m2 FRET response (PAM DRC) (mGluR2 [2]; [10]): 0
- SNAP-m2 FRET response (PAM DRC), Mean (mGluR2 [2]; [10]): 0
- Mean max response (normalized max ΔFRET) (mGluR2 [2]; SNAP-m2, 1 mM glutamate + 10 μM modulator, normalized to 1 mM glutamate): 1.02
- Mean ΔPotency (mGluR2 [2]; SNAP-m2, 10μM modulator, (([modulator + glutamate]EC50 – [glutamate] EC50)/[glutamate] EC50) × 100): -89.602
- Mean ΔEfficacy (mGluR2 [2]; SNAP-m2, 10μM modulator, ([1 mM glutamate + modulator] - [1 mM glutamate]) × 100): 2.381
- Hill slope of glutamate titration (mGluR2 [2]; SNAP-m2 sensor, + 10 μM modulator): –1.24
- azi-ECL2 - ΔEfficacy, Mean ΔEfficacy (mGluR2 [3]; [5]): 42.1338
- Mean ΔPotency (mGluR2 [3]; 10μM modulator, (([modulator + glutamate]EC50 – [glutamate] EC50)/[glutamate] EC50) × 100): -51.0252
- Mean max response (normalized max ΔFRET) (mGluR2 [3]; azi-ECL2, 1 mM glutamate + 10 μM modulator, normalized to 1 mM glutamate): 1.42
- Hill slope of glutamate titration (mGluR2 [3]; azi-ECL2 sensor, + 10 μM modulator): 1.06
- Mean normalized azi-ECL2 FRET response (mGluR2 [3]; log[Glutamate] (M) -3): 1.421
- Mean normalized azi-ECL2 FRET response (mGluR2 [3]; log[Glutamate] (M) -4.1549): 1.469
- Mean normalized azi-ECL2 FRET response (mGluR2 [3]; log[Glutamate] (M) -4.52288): 1.344
- Mean normalized azi-ECL2 FRET response (mGluR2 [3]; log[Glutamate] (M) -5): 1.155
- Mean normalized azi-ECL2 FRET response (mGluR2 [3]; log[Glutamate] (M) -5.39794): 0.8858
- Mean normalized azi-ECL2 FRET response (mGluR2 [3]; log[Glutamate] (M) -5.82391): 0.584
- Mean normalized azi-ECL2 FRET response (mGluR2 [3]; log[Glutamate] (M) -6.52288): 0.1491
- Mean normalized azi-ECL2 FRET response (mGluR2 [3]; log[Glutamate] (M) -7): 0.03109
- Mean normalized azi-ECL2 FRET response (mGluR2 [3]; log[Glutamate] (M) -7.30103): 0.00416
- Mean normalized azi-ECL2 FRET response (mGluR2 [3]; log[Glutamate] (M) -7.69897): 0
- Intracellular Ca2+ Response, % 1mM Glutamate (mGluR2 [4]; 1mM Glutamate + 1uM BINA, individual experiments): 150.888% and 116.9% and 139.124%
- Mean ΔEfficacy of glutamate (mGluR2 [4]; Ca2+ response, 1 mM glutamate + 1 μM modulator, ([1 mM glutamate + modulator] - [1 mM glutamate]) × 100): 35.6375
- ΔEfficacy of glutamate, individual experiments (mGluR2 [4]; Ca2+ response, 1 mM glutamate + 1 μM modulator, single replicate): 16.9004 and 39.1239 and 50.8883
- Mean ΔPotency of glutamate (mGluR2 [4]; Ca2+ response, glutamate + 1 μM modulator, (([modulator + glutamate]EC50 – [glutamate]EC50)/[glutamate]EC50) × 100): -89.8956
- ΔPotency of glutamate, individual experiments (mGluR2 [4]; Ca2+ response, glutamate + 1 μM modulator, single replicate): -90.1258 and -89.6956 and -89.8653
- Intracellular Ca2+ Response (normalized to 1mM glutamate), Mean (mGluR2 [4]; log[Glutamate] (M) -3): 1.356
- Intracellular Ca2+ Response (normalized to 1mM glutamate), Mean (mGluR2 [4]; log[Glutamate] (M) -3.60206): 1.413
- Intracellular Ca2+ Response (normalized to 1mM glutamate), Mean (mGluR2 [4]; log[Glutamate] (M) -4.1549): 1.344
- Intracellular Ca2+ Response (normalized to 1mM glutamate), Mean (mGluR2 [4]; log[Glutamate] (M) -4.52288): 1.309
- Intracellular Ca2+ Response (normalized to 1mM glutamate), Mean (mGluR2 [4]; log[Glutamate] (M) -5): 1.259
- Intracellular Ca2+ Response (normalized to 1mM glutamate), Mean (mGluR2 [4]; log[Glutamate] (M) -5.39794): 1.0353
- Intracellular Ca2+ Response (normalized to 1mM glutamate), Mean (mGluR2 [4]; log[Glutamate] (M) -5.82391): 0.6392
- Intracellular Ca2+ Response (normalized to 1mM glutamate), Mean (mGluR2 [4]; log[Glutamate] (M) -6.52288): 0.1098
- Intracellular Ca2+ Response (normalized to 1mM glutamate), Mean (mGluR2 [4]; log[Glutamate] (M) -7): 0
- Intracellular Ca2+ Response (normalized to 1mM glutamate), Mean (mGluR2 [4]; log[Glutamate] (M) -7.30103): 0
- Intracellular Ca2+ Response (normalized to 1mM glutamate), Mean (mGluR2 [4]; log[Glutamate] (M) -7.69897): 0
Compound: Cc1c(OCc2cccc(-c3ccc(C(=O)O)cc3)c2)cc2c(c1C)C(=O)C(C1CCCC1)C2 (stereo not drawn) [BINA]
- azi-CRD - ΔEfficacy, individual cell responses (mGluR2 [1]; 10μM BINA, single cells): 23.3716 and 17.6357 and 26.8405 and 19.7115 and 27.7937 and 0.5839 and -1.206 and 0.442 and -6.324
- Live-cell FRET max response normalized to 1mM glutamate (mGluR2 [1]; azi-CRD sensor, Glutamate + 10μM BINA, individual values (N=9)): 1.278 and 1.006 and 0.9879 and 1.004 and 0.9368 and 1.234 and 1.176 and 1.2684 and 1.197
- ΔPotency, individual cell (mGluR2 [1]; azi-CRD, 10μM modulator, calculated from individual cell responses): -93.2892 and -92.5628 and -93.8686 and -95.6587 and -92.9779 and -84.725 and -80.1033 and -74.2586 and -75.6122 and -79.7897
- SNAP-m2 - ΔEfficacy, individual cell responses (mGluR2 [2]; 10μM BINA, single cells): 2.679 and 0.7326 and 0.3738 and 4.211 and 3.017 and 2.268 and 3.39
- SNAP-m2 FRET response (PAM DRC) (mGluR2 [2]; [6]): -0.3851 and -0.8695 and -0.7127 and -0.7584 and -0.7474 and -0.9245 and -0.822 and -0.6977 and -0.989 and -0.9518 and -0.9499 and -0.2243 and -0.901 and -0.9622 and -1.01 and -0.9642 and -0.1942 and -0.3249 and -0.4164 and -0.506
- SNAP-m2 FRET response (PAM DRC) (mGluR2 [2]; [7]): -0.06795 and -0.4149 and -0.3185 and -0.3338 and -0.3365 and -0.4306 and -0.3984 and -0.3309 and -0.4302 and -0.4616 and -0.4969 and -0.03041 and -0.4566 and -0.4789 and -0.4597 and -0.5155 and -0.05296 and -0.06597 and -0.09807 and -0.1208 and -0.3936 and -0.2233 and -0.4059
- SNAP-m2 FRET response (PAM DRC) (mGluR2 [2]; [8]): -0.0453 and -0.1707 and -0.1814 and -0.1137 and 0 (10×) and -0.1874 and -0.2505 and -0.1579 and -0.1949 and -0.1703
- SNAP-m2 FRET response (PAM DRC) (mGluR2 [2]; [9]): 0 (16×) and -0.1321 and -0.1145 and -0.02457
- Live-cell FRET max response normalized to 1mM glutamate (mGluR2 [2]; SNAP-m2 sensor, Glutamate + 10μM BINA, individual values (N=7)): 1.03 and 1.023 and 1.0339 and 1.027 and 1.007 and 1.004 and 1.042
- ΔPotency, individual cell responses (mGluR2 [3]; 10μM modulator, single cells, (([modulator + glutamate]EC50 – [glutamate] EC50)/[glutamate] EC50) × 100): -59.4349 and -64.4751 and -43.9117 and -59.7874 and -53.4508 and -10.4259 and -42.6395 and -39.4154 and -48.6344 and -48.1424 and -33.877 and -32.3399 and -71.1589 and -70.5942 and -70.1728 and -67.9438
- ΔEfficacy, individual cell responses (mGluR2 [3]; 10μM modulator, single cells, ([1 mM glutamate + modulator] - [1 mM glutamate]) × 100): 29.3333 and 34.3873 and 67.0103 and 45.1311 and 54.8496 and 47.8253 and 100.958 and 52.7779 and 75.0355 and 26.9064 and 8.621 and 25.7313 and 7.026 and 14.2809
